The text below walks through data of US10538555B2, “Macrocyclic inhibitors of the PD-1/PD-L1 and CD80(B7-1)/PD-L1 protein/protein interactions” (BRISTOL-MYERS SQUIBB COMPANY, priority 2014, dated 2020).

*1 amine or outer side, *2 acyl side, *3 side chain or, on linkers, in order; H or OH if unused. Where a SMILES comes first, the peptide text is derived from it. Bridges are numbered along the chain shown (N, C = ends). [ ]: non-standard residue; d: D form. ξ: configuration not given here. Phe(3,4,5-F3) = N[C@@H](Cc1cc(F)c(F)c(F)c1)C(=O)O; Phe(4-F) = N[C@@H](Cc1ccc(F)cc1)C(=O)O; d(cisHyp) = O=C(O)[C@H]1C[C@@H](O)CN1; NMeY = CN[C@@H](Cc1ccc(O)cc1)C(=O)O; Hyp = O=C(O)[C@@H]1C[C@@H](O)CN1; NMeF = CN[C@@H](Cc1ccccc1)C(=O)O; X1 = O=C([C@H]1COCCN1[*:1])[*:2]; dHyp = O=C(O)[C@H]1C[C@H](O)CN1; NMeNle = CCCC[C@H](NC)C(=O)O; NMeV = CN[C@H](C(=O)O)C(C)C; d(hSer) = N[C@H](CCO)C(=O)O; Pip = O=C(O)[C@@H]1CCCCN1; hSer = N[C@@H](CCO)C(=O)O; NMeA = CN[C@@H](C)C(=O)O; Orn = NCCC[C@H](N)C(=O)O; dThz = O=C(O)[C@H]1CSCN1; Dab = NCC[C@H](N)C(=O)O; Dap = NC[C@H](N)C(=O)O; ξC = NC(CS)C(=O)O

T1 sequence (Q9NZQ7 with tags, fused parts or gaps): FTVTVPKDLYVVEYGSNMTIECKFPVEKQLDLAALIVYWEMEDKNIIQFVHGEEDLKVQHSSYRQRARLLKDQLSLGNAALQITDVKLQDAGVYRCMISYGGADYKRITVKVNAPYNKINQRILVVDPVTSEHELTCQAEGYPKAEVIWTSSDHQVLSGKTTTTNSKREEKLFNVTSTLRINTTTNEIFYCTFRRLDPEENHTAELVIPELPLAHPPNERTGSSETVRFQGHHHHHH

This assay has as its target T1, Human PD-L1/PD-1 (Homo sapiens, UniProt Q9NZQ7).
T1 construct: TVMV protease cleavage site (C); made in house; host or cells: HEK293T cells
Briefly: HTRF Human PD-L1/PD-1 binding assay (PD-1-Ig/PD-L1-His). The note with it: PD-L1-His 10 nM, PD-1-Ig 20 nM; class symbol; read-out: HTRF Human PD-L1/PD-1 Binding Assay IC50 Range. An outline of the steps:
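Truncated Fc-fused human PD-1 (aa 25-167) at 20 nM and His-tagged PD-L1 (aa 18-239) at 10 nM final are used, with peptides preincubated 15 min with PD-L1. Detection uses europium-cryptate anti-Ig and APC anti-His antibodies; 665/620 nm ratio.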
Background: In TR-FRET formats the signal depends on donor and acceptor labels being close together.
For `CCCC[C@H]1C(=O)N2CCC[C@@H]2C(=O)N[C@@H](CC(=O)O)C(=O)N[C@@H](C(C)C)C(=O)N(C)[C@@H](Cc2ccccc2)C(=O)N[C@@H](Cc2ccc(O)cc2)C(=O)N2CCC[C@@H]2C(=O)N[C@@H](Cc2c[nH]c3ccccc23)C(=O)N[C@@H](Cc2ccc(O)cc2)C(=O)N[C@@H](CO)C(=O)N[C@H](C(=O)NCC(N)=O)CSCC(=O)N[C@@H](Cc2cc(F)c(F)c(F)c2)C(=O)N(C)[C@@H](Cc2ccccc2)C(=O)N1C` [Example 10094] ({CH2CO}-[Phe(3,4,5-F3)][NMeF][NMeNle][dP]DV[NMeF]Y[dP]WYSCG-NH2; thioether N-13), the IC50 lay in the range of 1 to 9.9 nM.
As to `CCCC[C@H]1C(=O)N(C)[C@@H](CCCC)C(=O)N[C@@H](CCCCN)C(=O)N[C@H](C(=O)NCC(N)=O)CSCC(=O)N[C@@H](Cc2ccc(O)cc2)C(=O)N(C)[C@@H](C)C(=O)N[C@@H](CC(=O)O)C(=O)N2CCC[C@H]2C(=O)N[C@@H](Cc2c[nH]cn2)C(=O)N[C@@H](CC(C)C)C(=O)N2C[C@H](O)C[C@H]2C(=O)N[C@@H](Cc2c[nH]c3ccccc23)C(=O)N[C@@H](CO)C(=O)N[C@@H](Cc2c[nH]c3ccccc23)C(=O)N1C` [Example 11002] ({CH2CO}-Y[NMeA]DPHL[Hyp]WSW[NMeNle][NMeNle]KCG-NH2; thioether N-14), the IC50 lay within 1 to 9.9 nM.
As for `CCCC[C@H]1C(=O)N(C)[C@@H](CCCC)C(=O)N[C@@H](CCC(=O)O)C(=O)N[C@H](C(=O)NCC(N)=O)CSCC(=O)N[C@@H](Cc2ccc(O)cc2)C(=O)N2CCCC[C@H]2C(=O)N[C@@H](CC(=O)O)C(=O)N2CCC[C@H]2C(=O)N[C@@H](CN)C(=O)N[C@@H](CCC(=O)O)C(=O)N2C[C@H](O)C[C@H]2C(=O)N[C@@H](Cc2c[nH]c3ccccc23)C(=O)N[C@@H](CO)C(=O)N[C@@H](Cc2c[nH]c3ccccc23)C(=O)N1C` [Example 1521] ({CH2CO}-Y[Pip]DP[Dap]E[Hyp]WSW[NMeNle][NMeNle]ECG-NH2; thioether N-14), the IC50 was in the range of 1 to 9.9 nM.
Consider `CCCC[C@H]1C(=O)N(C)[C@@H](CCCC)C(=O)N[C@@H](CCC(=O)O)C(=O)NC(C(=O)NCC(N)=O)CSCC(=O)N[C@@H](Cc2ccc(O)cc2)C(=O)N(C)[C@@H](C)C(=O)N[C@@H](CC(N)=O)C(=O)N2CCC[C@H]2C(=O)N[C@@H](Cc2c[nH]cn2)C(=O)N[C@@H](CC(N)=O)C(=O)N2CCC[C@H]2C(=O)N[C@@H](Cc2c[nH]c3ccccc23)C(=O)N[C@@H](CCN)C(=O)N[C@@H](Cc2c[nH]c3ccccc23)C(=O)N1C` (stereo partly drawn) [Example 9182] ({CH2CO}-Y[NMeA]NPHNPW[Dab]W[NMeNle][NMeNle]E[ξC]G-NH2; thioether N-14), for which the IC50 was 1 to 9.9 nM.
To `CCCC[C@H]1C(=O)N(C)[C@@H](CCCC)C(=O)N[C@@H](CN)C(=O)N[C@H](C(=O)NCC(N)=O)CSCC(=O)N[C@@H](Cc2ccc(O)cc2)C(=O)N2CCCC[C@H]2C(=O)N[C@@H](CC(N)=O)C(=O)N2CCC[C@H]2C(=O)N[C@@H](CN)C(=O)N[C@@H](CCC(=O)O)C(=O)N2C[C@H](O)C[C@H]2C(=O)N[C@@H](Cc2c[nH]c3ccccc23)C(=O)N[C@@H](CCN)C(=O)N[C@@H](Cc2c[nH]c3ccccc23)C(=O)N1C` [Example 1519] ({CH2CO}-Y[Pip]NP[Dap]E[Hyp]W[Dab]W[NMeNle][NMeNle][Dap]CG-NH2; thioether N-14) belongs 1 to 9.9 nM; to `CCCC[C@H]1C(=O)N(C)[C@@H](CCCC)C(=O)N[C@@H](CCCNC(=N)N)C(=O)NC(C(=O)NCC(N)=O)CSCC(=O)N[C@@H](Cc2ccc(O)cc2)C(=O)N(C)[C@@H](C)C(=O)N[C@@H](CC(N)=O)C(=O)N2CCC[C@H]2C(=O)N[C@@H](Cc2cnc[nH]2)C(=O)N[C@H](CCO)C(=O)N2C[C@H](O)C[C@H]2C(=O)N[C@@H](Cc2c[nH]c3ccccc23)C(=O)N[C@@H](CO)C(=O)N[C@@H](Cc2c[nH]c3ccccc23)C(=O)N1C` (stereo partly drawn) [Example 9125] ({CH2CO}-Y[NMeA]NPH[d(hSer)][Hyp]WSW[NMeNle][NMeNle]R[ξC]G-NH2; thioether N-14), 10 to 99.9 nM.
As for `CCCC[C@H]1C(=O)N2CCC[C@@H]2C(=O)N[C@@H](CC(=O)O)C(=O)N[C@@H](C(C)C)C(=O)N(C)[C@@H](Cc2ccccc2)C(=O)N[C@@H](CCN)C(=O)N2CCOC[C@@H]2C(=O)N[C@@H](Cc2c[nH]c3ccccc23)C(=O)N[C@@H](Cc2ccc(O)cc2)C(=O)N[C@@H](CCCN)C(=O)N[C@H](C(=O)NCC(N)=O)CSCC(=O)N[C@@H](Cc2cc(F)c(F)c(F)c2)C(=O)N(C)[C@@H](Cc2ccc(O)cc2)C(=O)N1C` [Example 10625] ({CH2CO}-[Phe(3,4,5-F3)][NMeY][NMeNle][dP]DV[NMeF][Dab][X1]WY[Orn]CG-NH2; thioether N-13), the IC50 was 10 to 99.9 nM.
Regarding `CCCC[C@H]1C(=O)N2CCC[C@@H]2C(=O)N[C@@H](CC(=O)O)C(=O)N[C@@H](C(C)C)C(=O)N(C)[C@@H](Cc2ccccc2)C(=O)N[C@@H](CCC(=O)O)C(=O)N2C[C@@H](O)C[C@@H]2C(=O)N[C@@H](Cc2c[nH]c3ccccc23)C(=O)N[C@@H](Cc2ccc(O)cc2)C(=O)N[C@@H](CCCN)C(=O)N[C@H](C(=O)NCC(N)=O)CSCC(=O)N[C@@H](Cc2cc(F)c(F)c(F)c2)C(=O)N(C)[C@@H](Cc2ccccc2)C(=O)N1C` [Example 9286] ({CH2CO}-[Phe(3,4,5-F3)][NMeF][NMeNle][dP]DV[NMeF]E[dHyp]WY[Orn]CG-NH2; thioether N-13), the IC50 was in the range of 1 to 9.9 nM.
Consider `CCCC[C@H]1C(=O)N2CCC[C@@H]2C(=O)N[C@@H](CC(=O)O)C(=O)N[C@@H](C(C)C)C(=O)N(C)[C@@H](C(C)C)C(=O)N[C@@H](CCC(N)=O)C(=O)N2CCC[C@@H]2C(=O)N[C@@H](Cc2c[nH]c3ccccc23)C(=O)N[C@@H](Cc2ccc(O)cc2)C(=O)N[C@@H](CCCN)C(=O)N[C@H](C(=O)NCC(N)=O)CSCC(=O)N[C@@H](Cc2ccc(F)cc2)C(=O)N(C)[C@@H](Cc2ccccc2)C(=O)N1C` [Example 9247] ({CH2CO}-[Phe(4-F)][NMeF][NMeNle][dP]DV[NMeV]Q[dP]WY[Orn]CG-NH2; thioether N-13), for which the IC50 fell in the range of 1000 to 10000 nM.
In the case of `CCCC[C@H]1C(=O)N2CCC[C@@H]2C(=O)N[C@@H](CO)C(=O)N[C@@H](C(C)C)C(=O)N(C)[C@@H](Cc2ccccc2)C(=O)N[C@@H](Cc2ccc(O)cc2)C(=O)N2CSC[C@@H]2C(=O)N[C@@H](Cc2c[nH]c3ccccc23)C(=O)N[C@@H](Cc2ccc(O)cc2)C(=O)N[C@@H](CC(C)C)C(=O)N[C@H](C(=O)NCC(N)=O)CSCC(=O)N[C@@H](Cc2cc(F)c(F)c(F)c2)C(=O)N(C)[C@@H](Cc2ccccc2)C(=O)N1C` [Example 10089] ({CH2CO}-[Phe(3,4,5-F3)][NMeF][NMeNle][dP]SV[NMeF]Y[dThz]WYLCG-NH2; thioether N-13), the IC50 lay in the range of 1 to 9.9 nM.
To `CCCC[C@H]1C(=O)N2C[C@H](O)C[C@@H]2C(=O)N[C@@H](CC(=O)O)C(=O)N[C@@H](C(C)C)C(=O)N(C)[C@@H](Cc2ccccc2)C(=O)N[C@@H](CC(=O)O)C(=O)N2C[C@H](O)C[C@@H]2C(=O)N[C@@H](Cc2c[nH]c3ccccc23)C(=O)N[C@@H](Cc2ccc(O)cc2)C(=O)N[C@@H](CC(=O)O)C(=O)N[C@H](C(=O)NCC(N)=O)CSCC(=O)N[C@@H](Cc2cc(F)c(F)c(F)c2)C(=O)N(C)[C@@H](Cc2ccccc2)C(=O)N1C` [Example 9350] ({CH2CO}-[Phe(3,4,5-F3)][NMeF][NMeNle][d(cisHyp)]DV[NMeF]D[d(cisHyp)]WYDCG-NH2; thioether N-13) belongs 10 to 99.9 nM; to `CCCC[C@H]1C(=O)N2C[C@@H](O)C[C@@H]2C(=O)N[C@@H](CC(=O)O)C(=O)N[C@@H](C(C)C)C(=O)N(C)[C@@H](Cc2ccccc2)C(=O)N[C@@H](CCC(=O)O)C(=O)N2C[C@@H](O)C[C@@H]2C(=O)N[C@@H](Cc2c[nH]c3ccccc23)C(=O)N[C@@H](Cc2ccc(O)cc2)C(=O)N[C@@H](CC(C)C)C(=O)N[C@H](C(=O)NCC(N)=O)CSCC(=O)N[C@@H](Cc2cc(F)c(F)c(F)c2)C(=O)N(C)[C@@H](Cc2ccccc2)C(=O)N1C` [Example 9275] ({CH2CO}-[Phe(3,4,5-F3)][NMeF][NMeNle][dHyp]DV[NMeF]E[dHyp]WYLCG-NH2; thioether N-13), 1 to 9.9 nM.
As to `CCCC[C@H]1C(=O)N2C[C@H](O)C[C@@H]2C(=O)N[C@@H](CC(=O)O)C(=O)N[C@@H](C(C)C)C(=O)N(C)[C@@H](Cc2ccccc2)C(=O)N[C@@H](CC(=O)O)C(=O)N2C[C@H](O)C[C@@H]2C(=O)N[C@@H](Cc2c[nH]c3ccccc23)C(=O)N[C@@H](Cc2ccc(O)cc2)C(=O)N[C@@H](CC(C)C)C(=O)N[C@H](C(=O)NCC(N)=O)CSCC(=O)N[C@@H](Cc2cc(F)c(F)c(F)c2)C(=O)N(C)[C@@H](Cc2ccccc2)C(=O)N1C` [Example 9319] ({CH2CO}-[Phe(3,4,5-F3)][NMeF][NMeNle][d(cisHyp)]DV[NMeF]D[d(cisHyp)]WYLCG-NH2; thioether N-13), the IC50 fell in the range of 1 to 9.9 nM.
Turning to `CCCC[C@H]1C(=O)N(C)[C@@H](CCCC)C(=O)N[C@@H](CCC(=O)O)C(=O)N[C@H](C(=O)NCC(N)=O)CSCC(=O)N[C@@H](Cc2ccc(O)cc2)C(=O)N(C)[C@@H](C)C(=O)N[C@@H](CC(=O)O)C(=O)N2CCC[C@H]2C(=O)N[C@@H](CN)C(=O)N[C@@H](CC(C)C)C(=O)N2C[C@H](O)C[C@H]2C(=O)N[C@@H](Cc2c[nH]c3ccccc23)C(=O)N[C@@H](CCN)C(=O)N[C@@H](Cc2c[nH]c3ccccc23)C(=O)N1C` [Example 5162] ({CH2CO}-Y[NMeA]DP[Dap]L[Hyp]W[Dab]W[NMeNle][NMeNle]ECG-NH2; thioether N-14), the IC50 lay within 1 to 9.9 nM.
With `CCCC[C@H]1C(=O)N2CCOC[C@@H]2C(=O)N[C@@H](CC(=O)O)C(=O)N[C@@H](C(C)C)C(=O)N(C)[C@@H](Cc2ccccc2)C(=O)N[C@@H](CCCN)C(=O)N2C[C@H](O)C[C@@H]2C(=O)N[C@@H](Cc2c[nH]c3ccccc23)C(=O)N[C@@H](Cc2ccc(O)cc2)C(=O)N[C@@H](CCOC)C(=O)N[C@H](C(=O)NCC(N)=O)CSCC(=O)N[C@@H](Cc2cc(F)c(F)c(F)c2)C(=O)N(C)[C@@H](Cc2ccccc2)C(=O)N1C` [Example 10184] ({CH2CO}-[Phe(3,4,5-F3)][NMeF][NMeNle][X1]DV[NMeF][Orn][d(cisHyp)]WY[hSer](Me)CG-NH2; thioether N-13), the IC50 lay in the range of 10 to 99.9 nM.
